Measured values taken from paper PMC8780580, “The Neuroactive Steroid Pregnanolone Glutamate: Anticonvulsant Effect, Metabolites and Its Effect on Neurosteroid Levels in Developing Rat Brains” (Pharmaceuticals, 2021).
Structures can show the parent of a compound that is named as a salt.

Columns and labels:
[1] = Steroidomic (GC-MS/MS) analysis of hippocampal tissue after PA-G administration; settings: for concentration at 20 min: male, Wistar, rat, in vivo, ip, Steroid concentration in hippocampal tissue, PA-G-Treated (P); for concentration at 20 min / fold increase in the concentration in the rat hippocampus above the basal levels / percentage of total significantly increased (5β) steroids in the rat hippocampus: 20 min after PA-G i.p., 1 mg/kg in CDX; for measurable concentration in the rat brain / increase in concentration compared with basal levels: after PA-G i.p.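 For all read-outs here: hippocampal steroids quantified by GC-MS/MS, covering free and conjugated forms after hydrolysis, compared against intact rats and rats injected with CDX vehicle alone, five animals per group.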
Description: In a separate experiment, samples of the hippocampus were obtained from male albino Wistar rats in 6 experimental groups consisting of P12 and P25 animals that were either intact (I), controls (C, i.p. application of a solution of CDX), or in the experimental group (i.p. application of PA-G in a solution of CDX at a dose of 1 mg/kg). Each group consisted of 5 animals. The animals were sacrificed using ether anaesthesia (Penta, Czech Republic) 30 min after administration of the drug. The hippocampi were quickly removed, weighed, and frozen at −80 °C in sterile plastic microvials until analysis.
An amount of 17–100 mg of the hippocampal tissue was minced and then administered into screw-cap tubes. Next, 2 mL of methanol with a mixture of internal standards was added, and the samples were incubated for 1 week in a refrigerator at 4 °C with agitation for 2 min once a day. Afterwards, the extract was transferred into new screw-cap tubes and dried in a vacuum centrifuge at 45 °C. After that, 1 mL of water of chromatographic purity was added, and the samples were further treated as described in our recently published paper [76].
Briefly, the unconjugated steroids were extracted from a testing sample with diethyl-ether, the extract was dried, and the lipids were separated by partitioning between a mixture of methanol with water (4:1, v/v) and pentane. The pentane phase was discarded, and the polar phase was dried and used for further analysis of the unconjugated steroids. Steroid conjugates remaining in the polar residue after diethyl ether were hydrolyzed to their parent hydroxy steroids (unconjugated molecules) and analyzed.

GABAARs = system: GABAARs; design: method as in PMID 29886074; settings: isolated pyramidal neurons of the rat hippocampus, cited from earlier work
[2] = system: pentylenetetrazol-induced seizures; assay: Pentylenetetrazol (PTZ)-induced seizures in 12- and 25-day-old rats; format: in vivo, male Wistar albino rats; settings: for incidence of generalized seizures (GS): i.p. 20 mg/kg (highest dose tested)
Description: Solutions of PA-G and PA-S were administered intraperitoneally at a concentration of 1 mg/mL, and doses of 1, 5, 10, and 20 mg/kg were used. The solutions of zuranolone were administered intraperitoneally at a concentration of 1 mg/mL, and doses of 0.5, 1, 5, and 10 mg/kg were used. Controls were injected with CDX solution in a volume corresponding to the highest dose (i.e., 20 mL/kg). The same control group was used for PA-S and PA-G. Pentylenetetrazol (PTZ, Sigma Aldrich, Gillingham, Dorset, UK) was dissolved in water in a concentration of 50 mg/mL and was administered subcutaneously at a dose of 100 mg/kg 20 min after the administration of PA-G or PA-S. Each age and dose group comprised 8 animals. The rats were placed individually into plexiglass boxes and were then observed for 30 min after PTZ injection. The incidence, severity, and latencies of seizures were assessed. Younger animals were placed on a pad heated to 34 °C, i.e., to the temperature in the nest for the whole duration of the experiment because of immature thermoregulation. Generalized tonic-clonic or clonic seizures with a loss of righting reflexes were present after a dose of 100 mg/kg of PTZ in all control animals in both age groups. […] The severity of seizures was quantified using a five-point scale as follows: 0—no changes; 0.5—abnormal behaviour (e.g., automatisms, increased orienting reaction); 1—isolated myoclonic jerks; 2—atypical or prolonged minimal seizures; 3—clonic seizures (mS) involving head and forelimb muscles with preserved righting reflexes (older-term minimal pentetrazol seizures); 4—generalized seizures without the tonic phase (GCS); 5—complete generalized tonic-clonic seizures (GTCS).

NMDARs = settings: NMDA-induced currents, transfected HEK293 cells; cited from earlier work
[3] = P12 rats, i.p. doses of 5 and 10 mg/kg

Compound | concentration at 20 min ([1]; 1 mg/kg, 12-day-old rats) | concentration at 20 min ([1]; 1 mg/kg, 25-day-old rats) | fold increase in the concentration in the rat hippocampus above the basal levels ([1]; P12) | percentage of total significantly increased (5β) steroids in the rat hippocampus ([1]; P12) | fold increase in the concentration in the rat hippocampus above the basal levels ([1]; P25) | percentage of total significantly increased (5β) steroids in the rat hippocampus ([1]; P25) | further results
C[C@]12CC[C@H]3[C@@H](CC=C4C[C@@H](O)CC[C@@]43C)[C@@H]1CC[C@@H]2O [Androstenediol, androstenediol] | 0.758 ng/g | 0.364 ng/g |  |  |  |  | 
CC(=O)[C@H]1CC[C@H]2[C@@H]3CC[C@H]4C[C@H](O)CC[C@]4(C)[C@H]3CC[C@]12C [Allopregnanolone, allopregnanolone] | 0.246 ng/g | 0.144 ng/g |  |  |  |  | 
CC(=O)[C@H]1CCC2C3CC[C@@H]4CC(=O)CC[C@]4(C)C3CC[C@@]21C (stereo partly drawn) [5β-Dihydroprogesterone, 5β-dihydroprogesterone] | 0.477 ng/g | 0.0943 ng/g | 19 x | 0.07% | 1.9 x | 0.09% | 
17α-hydroxyprogesterone |  |  |  |  |  |  | measurable concentration in the rat brain ([1]; 1 mg/kg): did not detect measurable concentrations
C[C@]12CC[C@H](OS(=O)(=O)O)CC1=CCC1C2CC[C@@]2(C)C1CC[C@@H]2O (stereo partly drawn) [Androstenediol sulfate, androstenediol sulfate] | 6.07 ng/g | 1.62 ng/g |  |  |  |  | 
CC(=O)[C@@]1(O)CCC2C3CC[C@H]4C[C@H](O)CC[C@]4(C)C3CC[C@@]21C (stereo partly drawn) [17-Hydroxyallopregnanolone] | 8.36 ng/g | 3.19 ng/g |  |  |  |  | 
C[C@H](O)[C@@]1(O)CCC2C3CC[C@@H]4C[C@H](O)CC[C@]4(C)C3CC[C@@]21C (stereo partly drawn) [3α,17α,20α-Trihydroxy-5β-pregnane] | 5.86 ng/g | 0.951 ng/g | 9.16 x | 0.74% | 2.39 x | 1.05% | 
C[C@]12CC[C@@H](O)C[C@H]1CC[C@@H]1[C@@H]2[C@@H](O)C[C@]2(C)[C@@H](C(=O)CO)CC[C@@H]12 [3α,5β-THCC, 3α,5β-tetrahydrocorticosterone] |  |  | 4.47 x |  | 1 x | less than 0.01% | percentage of total significantly increased (5β) steroids in the rat hippocampus ([1]; P12, 1 mg/kg): approximately 8%; percentage of total significantly increased (5β) steroids in the rat hippocampus ([1]; P12, listed as 3α,5β-Tetrahydrocorticosterone (3α,5β-THCC), 1 mg/kg): 8.12%
CC(=O)[C@@]1(O)CC[C@H]2[C@@H]3CC[C@@H]4C[C@H](OC(=O)[C@@H](N)CCC(=O)O)CC[C@]4(C)[C@H]3CC[C@@]21C [17-Hydroxypregnanolone glutamate] |  |  | 84.6 x | 0.04% | 14.7 x | 0.015% | 
C[C@H](O)[C@H]1CCC2C3CC[C@@H]4C[C@H](O)CC[C@]4(C)C3CC[C@@]21C (stereo partly drawn) [3α,20α-Dihydroxy-5β-pregnane] | 8.42 ng/g | 0.919 ng/g | 78.1 x | 1.23% | 15.7 x | 1.72% | 
C[C@]12CC[C@H](O)CC1=CC[C@@H]1[C@@H]2CC[C@]2(C)C(=O)CC[C@@H]12 [Dehydroepiandrosterone (DHEA), dehydroepiandrosterone] | 1.13 ng/g | 0.644 ng/g |  |  |  |  | 
CC(=O)[C@@]1(O)CC[C@H]2[C@@H]3CC=C4CCCC[C@]4(C)[C@H]3CC[C@@]21C [17α-hydroxypregn-5-en-20-one] |  |  |  |  |  |  | measurable concentration in the rat brain ([1]; 1 mg/kg): did not detect measurable concentrations
C[C@]12CC[C@@H](O)C[C@H]1CC[C@@H]1[C@@H]2CC[C@]2(C)C(=O)CC[C@@H]12 [Etiocholanolone (ETIO), etiocholanolone] |  |  |  | 0.1% |  | 0.08% | increase in concentration compared with basal levels ([1]; P12 animals, 1 mg/kg): ~12 fold; increase in concentration compared with basal levels ([1]; P25 animals, 1 mg/kg): ~2 fold
CC(=O)[C@H]1CCC2C3CC[C@@H]4C[C@H](OC(=O)[C@@H](N)CCC(=O)O)CC[C@]4(C)C3CC[C@@]21C (stereo partly drawn) [PA-G, 20-oxo-5β-pregnan-3α-yl L-glutamyl 1-ester] |  |  | 199 x | 6.04% | 9.76 x | 10.8% | maximum potentiation of IGABA peak amplitude (GABAARs): up to 422%; EC50 (GABAARs; read-out: EC50 (increase of IGABA peak)): 7 µM; latencies of GS ([2]; P12 rats, Kruskal-Wallis over dose groups): increase in the latencies of GS; incidence of generalized seizures (GS) ([2]; P12 rats): prevented the development of GS in all animals; seizure severity ([2]; P12 rats, i.p. 1, 5, 10, 20 mg/kg, Kruskal-Wallis over dose groups): suppressed seizure severity; tonic phase (TP) of GTCS [2, 3]: completely abolished TP; seizure severity ([2]; P25 rats, Kruskal-Wallis over dose groups): affected seizure severity; latencies of GS ([2]; P25 rats, i.p. 10 mg/kg): prolonged; incidence of GTCS ([2]; P25 rats, i.p. 20 mg/kg): completely suppressed these seizures; seizure severity (score) ([2]; P25 rats, i.p. 20 mg/kg): decreased score; IC50 (NMDARs): 73 µM
CC(=O)[C@H]1CC[C@H]2[C@@H]3CC[C@@H]4C[C@H](OS(=O)(=O)O)CC[C@]4(C)[C@H]3CC[C@]12C [PA-S, pyridinium 20-oxo-5β-pregnan-3α-yl sulfate] |  |  |  |  |  |  | incidence of generalized seizures (GS) ([2]; P12 rats): completely eliminated GS; seizure severity ([2]; P12 rats, i.p. doses of 5 mg/kg and higher, 20 min before PTZ 100 mg/kg s.c.): significant decrease in seizure severity; latencies of GS [2, 3]: significantly prolonged the latencies of GS; tonic phase (TP) of GTCS [2, 3]: completely abolished TP; parameters of minimal seizures (mS) ([2]; P25 rats): did not affect any parameters of mS; tonic phase (TF) of GTCS ([2]; P25 rats): did not exhibit specific effects against the TF of GTCS; incidence of GS ([2]; P25 rats, chi2 test over dose groups, Fisher's tests no differences between individual groups): affected the incidence of GS; seizure severity (score) ([2]; P25 rats, i.p. 20 mg/kg): lower score; IC50 (NMDARs): 24 µM
CC(=O)[C@H]1CC[C@H]2[C@@H]3CC[C@@H]4C[C@H](O)CC[C@]4(C)[C@H]3CC[C@]12C [PA, pregnanolone] | 63.6 ng/g | 5.02 ng/g | 272 x | 9.47% | 12.8 x | 9.30% | increase in concentration compared with basal levels ([1]; P12 animals, 1 mg/kg): up to 272 fold; percentage of the brain's total 5β-steroids in the hippocampus after PA-G administration ([1]; stated over P12 and P25 animals, 20 min after PA-G): approximately 10%
C[C@H](O)[C@H]1CC[C@H]2[C@@H]3CC[C@@H]4C[C@H](OC(=O)[C@@H](N)CCC(=O)O)CC[C@]4(C)[C@H]3CC[C@]12C [(20S)-Hydroxypregnanolone glutamate] |  |  | 99.7 x | 0.53% | 10.2 x | 0.93% | 
CC(=O)[C@H]1CCC2C3CC=C4C[C@@H](O)CC[C@]4(C)C3CC[C@@]21C (stereo partly drawn) [Pregnenolone (PE), pregnenolone] | 4.69 ng/g | 3.44 ng/g |  |  |  |  | 
